Patent US9469645B2, “Compounds and compositions for the treatment of parasitic diseases” (Novartis AG, priority 2009, dated 2016)

Experiments:
3D7 P. falciparum strain = assay: parasite proliferation assay in infected red blood cells (SYBR Green I); type: cell-based, Plasmodium falciparum; conditions: Plasmodium falciparum, 3D7, Erythrocyte, 3D7 strain; read-out: EC50 3D7 strain
Summary of the method: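 P. falciparum 3D7 grown in O+ human erythrocytes to 3–8% parasitemia and exposed to compounds. Proliferation read as the increase in parasite DNA. Detection used SYBR Green I in saponin/triton-X/EDTA lysis buffer, with overnight lysis at room temperature.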

W2 strain = assay: parasite proliferation assay in infected red blood cells (SYBR Green I), W2 strain; type: cell-based; conditions: Erythrocyte
Text: Compounds of the invention can be assayed to measure their capacity to inhibit proliferation of parasitemia in infected red blood cells. The proliferation is quantified by the addition of SYBR Green I (INVITROGEN)® dye which has a high affinity for double stranded DNA.

Compound	EC50 (3D7 P. falciparum strain)	EC50 (W2 strain)
CC(C)(C)[C@H](N)C(=O)N1CCn2c(nc(-c3ccc(F)cc3)c2Nc2ccc(Cl)c(F)c2)C1 [Compound 326]	30 nM	22 nM
C[C@@H](N)C(=O)N1CCn2c(nc(-c3ccc(F)cc3)c2Nc2ccc(Cl)c(F)c2)C1 [Compound 327]	30 nM	21 nM
N#Cc1ccc(C[C@H](N)C(=O)N2CCn3c(nc(-c4ccc(F)cc4)c3Nc3ccc(Cl)c(F)c3)C2)cc1 [Compound 328]	340 nM	229 nM
Cc1ccc(Nc2c(-c3ccc(F)cc3)nc3n2CC(C)NC3)cc1 (stereo not drawn) [Compound 329]	150 nM	116 nM
Cc1ccc(Nc2c(-c3ccncc3)nc3n2CCNC3)cc1 [Compound 354]	6320 nM	564 nM
Cc1ccc(Nc2c(-c3ccc(F)cc3)nc3n2CCN(C(=O)C(Nc2ccc(C(F)(F)F)cc2Cl)C(C)C)C3)cc1 (stereo not drawn) [Compound 355]	2810 nM	2270 nM
O=C([C@H]1CCCO1)N1CCn2c(nc(-c3ccc(F)cc3)c2Nc2ccc(Cl)c(F)c2)C1 [Compound 356]	1260 nM	872 nM
Cn1cc(CC(=O)N2CCn3c(nc(-c4ccc(F)cc4)c3Nc3ccc(Cl)c(F)c3)C2)c2ccccc21 [Compound 357]	7490 nM	4710 nM
CC(C)C[C@H](O)C(=O)N1CCn2c(nc(-c3ccc(F)cc3)c2Nc2ccc(Cl)c(F)c2)C1 [Compound 358]	130 nM	49 nM
O=C(CCc1ccccc1F)N1CCn2c(nc(-c3ccc(F)cc3)c2Nc2ccc(Cl)c(F)c2)C1 [Compound 359]	140 nM	108 nM
CC(C)[C@@H](O)C(=O)N1CCn2c(nc(-c3ccc(F)cc3)c2Nc2ccc(Cl)c(F)c2)C1 [Compound 360]	30 nM	15 nM
Cc1ccc(Nc2c(-c3ccc(F)cc3)nc3n2CCN(C(=O)CNc2cccc(Cl)c2)C3)cc1 [Compound 361]	2350 nM	1140 nM
Cc1ccc(NCC(=O)N2CCn3c(nc(-c4ccc(F)cc4)c3Nc3ccc(C)cc3)C2)cc1 [Compound 362]	810 nM	203 nM
O=C(Cc1ccc(Cl)c(F)c1)N1CCn2c(nc(-c3ccc(F)cc3)c2Nc2ccc(Cl)c(F)c2)C1 [Compound 363]	1750 nM	1130 nM
COc1ccc(NC(C)(C)C(=O)N2CCn3c(nc(-c4ccc(F)cc4)c3Nc3ccc(C)cc3)C2)cc1 [Compound 364]	4950 nM	3740 nM
NC(C(=O)N1CCn2c(nc(-c3ccc(F)cc3)c2Nc2ccc(Cl)c(F)c2)C1)c1ccc(Cl)c(Cl)c1 (stereo not drawn) [Compound 365]	610 nM	260 nM
Cc1ccc(Nc2c(-c3ccc(F)cc3)nc3n2CCN(C(=O)C(C)(N)C(F)(F)F)C3)cc1 (stereo not drawn) [Compound 366]	3470 nM	1820 nM
O=C(C1CNCCO1)N1CCn2c(nc(-c3ccc(F)cc3)c2Nc2ccc(Cl)c(F)c2)C1 (stereo not drawn) [Compound 367]	190 nM	148 nM
NC(C(=O)N1CCn2c(nc(-c3ccc(F)cc3)c2Nc2ccc(Cl)c(F)c2)C1)c1ccc(C(F)(F)F)cc1 (stereo not drawn) [Compound 368]	520 nM	286 nM
NC(C(=O)N1CCn2c(nc(-c3ccc(F)cc3)c2Nc2ccc(Cl)c(F)c2)C1)c1ccc(Cl)cc1 (stereo not drawn) [Compound 369]	110 nM	84 nM
O=C(c1ccc2ncccc2c1)N1CCn2c(nc(-c3ccc(F)cc3)c2Nc2ccc(Cl)c(F)c2)C1 [Compound 370]	4350 nM	8340 nM
Cc1ccc(Nc2c(-c3ccc(F)cc3)nc3n2CCN(C(=O)C(Nc2ccc(C)cc2)c2ccccc2)C3)cc1 (stereo not drawn) [Compound 371]	1520 nM	1280 nM
CN1CCOC(C(=O)N2CCn3c(nc(-c4ccc(F)cc4)c3Nc3ccc(Cl)c(F)c3)C2)C1 (stereo not drawn) [Compound 372]	690 nM	554 nM

Compound	EC50 (3D7 P. falciparum strain)	EC50 (W2 strain)
Cc1ccc(Nc2c(-c3ccc(F)cc3)nc3n2CCN(C(=O)C(C)(C)Nc2ccccc2)C3)cc1 [Compound 374]	590 nM	248 nM
CC(C)(N)C(=O)N1CCn2c(nc(-c3cccc(F)c3)c2Nc2ccc(F)cc2C(F)(F)F)C1 [Compound 375]	1130 nM	679 nM
CN[C@H](C(=O)N1CCn2c(nc(-c3ccc(F)cc3)c2Nc2ccc(C)cc2)C1)C(C)C [Compound 376]	60 nM	79 nM
CN[C@@H](CC(C)C)C(=O)N1CCn2c(nc(-c3ccc(F)cc3)c2Nc2ccc(C)cc2)C1 [Compound 378]	60 nM	63 nM
Cc1ccc(Nc2c(-c3ccc(F)c(F)c3)nc3n2CCN(C(=O)C(C)(C)N)C3)cc1 [Compound 379]	60 nM	50 nM
Cc1ccc(Nc2c(-c3ccc(F)cc3)nc3n2CCN(C(=O)C(C)Nc2c(C)cccc2C)C3)cc1 (stereo not drawn) [Compound 380]	1130 nM	1790 nM
COc1ccccc1-c1nc2n(c1Nc1ccc(C)cc1)CCN(C(=O)CN)C2 [Compound 381]	1970 nM	1800 nM
Cc1ccc(Nc2c(-c3ccncc3)nc3n2CCN(C(=O)CN)C3)cc1 [Compound 382]	1050 nM	1040 nM
Cc1ccc(Nc2c(-c3cccc(Cl)c3)nc3n2CCN(C(=O)CN)C3)cc1 [Compound 383]	50 nM	32 nM
Cc1ccc(Nc2c(-c3ccc(F)cc3)nc3n2CCN(C(=O)CNc2ccc(C)cc2C)C3)cc1 [Compound 384]	470 nM	889 nM
Cc1ccc(Nc2c(-c3ccc(F)c(F)c3)nc3n2CCN(C(=O)CN)C3)cc1 [Compound 385]	20 nM	20 nM
Cc1ccc(Nc2c(-c3ccc(F)cc3)nc3n2CCN(C(=O)C(C)(C)Nc2ccc(C)cc2)C3)cc1 [Compound 386]	2620 nM	3030 nM
Cc1ccc(Nc2c(-c3ccc(F)cc3F)nc3n2CCN(C(=O)CN)C3)cc1 [Compound 387]	110 nM	80 nM
Cc1ccc(Nc2c(-c3ccc(F)cc3)nc3n2CCN(C(=O)[C@H](C)N(C)Cc2ccccc2)C3)cc1 [Compound 388]	3220 nM	1770 nM
CCCC[C@H](NC)C(=O)N1CCn2c(nc(-c3ccc(F)cc3)c2Nc2ccc(C)cc2)C1 [Compound 389]	60 nM	51 nM
Cc1ccc(CC(=O)N2CCn3c(nc(-c4ccc(F)c(F)c4)c3Nc3ccc(C)cc3)C2)cc1 [Compound 390]	30 nM	28 nM
Cc1ccc(Nc2c(-c3ccc(F)c(F)c3)nc3n2CCN(C(=O)[C@H](O)C(C)C)C3)cc1 [Compound 391]	10 nM	7 nM
CCC[C@H](NC)C(=O)N1CCn2c(nc(-c3ccc(F)cc3)c2Nc2ccc(C)cc2)C1 [Compound 392]	30 nM	39 nM
CC(C)C[C@@H](N)C(=O)N1CCn2c(nc(-c3ccc(F)cc3)c2Nc2ccc(Cl)c(F)c2)C1 [Compound 394]	50 nM	43 nM
Cc1ccc(Nc2c(-c3ccc(F)cc3F)nc3n2CCN(C(=O)C(C)(C)N)C3)cc1 [Compound 395]	440 nM	246 nM
Cc1ccc(Nc2c(-c3ccc(F)c(F)c3)nc3n2CCN(C(=O)[C@@H](N)C(C)C)C3)cc1 [Compound 396]	30 nM	22 nM
Cc1ccc(Nc2c(-c3cccc(Cl)c3)nc3n2CCN(C(=O)C(C)(C)N)C3)cc1 [Compound 397]	2450 nM	1670 nM
